These results are taken from patent US20240148745A1, “COMPOUNDS FOR USE IN PROGRESSIVE MULTIPLE SCLEROSIS” (FONDAZIONE CENTRO SAN RAFFAELE, priority 2021, published 2024).

The subject of one experiment is rat primary OPC cultures. As to the kind of experiment: Differentiation of rat primary OPC into MBP+ OLs. It is filed as cell-based. The settings on record: 96 h, 4 days of differentiation, read-out: MBP+ differentiation (MBP+/SOX10+ OLs plus compounds / plus basal medium). The procedure, abridged: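 Primary rat OPCs were differentiated for 4 days with compounds at […], in triplicate over 3 independent experiments. Cells were immunolabelled for CNPase, MBP and SOX10, and MBP+ oligodendrocytes were counted by imaging. Results are fold increase in MBP+/SOX10+ cells over basal medium; 9-cis-RA ([…]) was the positive control.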

Experiment [1] relates to mouse cortical and striatal neurons. Nature of the experiment: Morphological integrity evaluation, NMDA 20 μM. It is filed as cell-based. To be noted: 1 μM, 24 h pre-treatment, NMDA 20 μM 24 h. On the procedure: Morphological integrity evaluation. Mouse cortical and striatal neurons (14 DIV) cultured in MW96 plates were exposed to 1 uM to 60 uM concentrations of NMDA and relationship between the NMDA dose and fiber length was evaluated. […] Each of the compound was tested in quadruplicate. The fiber length was evaluated by MAP2 staining (please see the method described earlier).
42 compounds were screened to evaluate the morphological integrity of cortical and striatal neurons upon chronic (24 h) NMDA exposure at concentration of 20 μM with compounds pre-treatment (24 h) in preventive regimen (FIG. 17).

Experiment [2] relates to iPSC-derived glutamatergic neurons. As to the kind of experiment: ROS (tBuOOH)-mediated neuroprotective assay on hNeu. It is filed as cell-based, human. On the procedure: Neuroprotective experiments were performed using iPSC-derived glutamatergic neurons from 3 healthy controls cultured for 30-40 DIV. Cells were pre-treated for 24 h with […] of compounds, vehicle (DMSO) or 5 nM Mito-Q (mitoquinone) served as a positive control. On the next day cells were incubated for 2 h with 100 µM of tert-butyl peroxide (tBuOOH, Sigma), then the medium was replaced and the viability readout by CCK8 viability assay kit (Dojindo) was performed on the following day. The cell viability was expressed as normalized Z score and compared to tBuOOH-treated cells with nonparametric Kruskal-Wallis test with Dunn's multiple comparisons correction.
32 “Front runners” and 7 compounds from short list were tested on iPSC-derived neurons from three control lines in ROS-mediated assay to evaluate a neuroprotective potential of selected compounds. Three independent experiments were performed for CTR4 and CTR8, FIG. 20 (A, C), while two independent experiments were performed for CTR7, FIG. 20 (B).

For experiment [3], the system named is primary murine spinal cord culture. Nature of the experiment: Myelinating cell cultures from primary murine spinal cord. It is filed as cell-based, mouse. The settings on record: 1 μM. On the procedure: Single cell suspensions are prepared from spinal cord of mouse embryos (E13) (adapted from Thomson, 2008) and 1.5×10^5 cells/well were plated into 96 well plates. Over time, these cultures mature and form axons, which later myelinate. Using spinal cord tissue facilitates the quantification of mature MBP+ oligodendrocytes and newly formed myelin by in-house high-content imaging system (Operetta High Content Imaging System, Perkin Elmer) with a 20× lens. From each well, 25 fields in a 5×5 matrix were scanned. Thirty-two “Front Runners” compounds were tested in replicates of five at 1 μM/DMSO, while T3, benzotropine and clemastine were used as positive controls, DMSO as negative/solvent control. Two experimental paradigms were applied: “Early treatment”: exposure to experimental agent from DIV7 to DIV14; “Late treatment”: exposure to experimental agent from DIV14-DIV21. On DIV21, cultures were fixed and stained (myelin: MBP, axons: NF200; nuclei: Hoechst). Imaging data were analysed using CellProfiler and in-house generated analysis pipeline.
Thirty-two “Front Runners” compounds were tested in replicates of five at 1 μM/DMSO, while T3, benztropine and clemastine were used as positive controls, DMSO as negative/solvent control. Two experimental paradigms were applied: “Early treatment”: exposure to experimental agent from DIV7 to DIV14; “Late treatment”: exposure to experimental agent from DIV14-DIV21. […] In “Late treatment” paradigm in myelin area evaluation were identified Vanoxerine, Roxadustat, Tamibarotene, Drinabant, Progesterone, Saracatinib. In quantification of myelinated axons were identified Vanoxerine, Drinabant, Roxadustat.

For experiment [4], the system named is H9-derived human neural stem cells. As to the kind of experiment: Neurotoxic or regenerative effect screening (CellTiter-Glo). It is filed as cell-based. The settings on record: 10 μM, three independent screenings. On the procedure:
H9-derived human neural stem cells (H9 hNSCs, Gibco) were cultured according to the manufacturer's instructions. Briefly, H9 hNSCs were expanded and subsequently differentiated in neurobasal medium, 2% B27, 1% Glutamax, and 1% penicillin/streptomycin, supplemented with 10 ng/ml BDNF (Peprotech), and 2 ng/ml recombinant human GDNF (Peprotech). After 7 days, 500 μM of db-cAMP (N6,2′-O-dibutyryladenosine 3′,5′-cyclic monophosphate, Sigma) was added.
The metabolic activity/viability of selected compounds (32 “Front Runners”+24 compounds from the “Short list”) was evaluated by CellTiter-Glo® Luminescent Cell Viability Assay. The primary screen of Front Runner List (32 compounds)+24 compounds from Short List) on H9-derived human neurons was performed at 10 μM concentration. The validation of hits from primary screen on H9-derived human neurons was performed at 10 μM concentration.
32 Front Runners were tested at 10 μM on H9-derived human neuronal cultures and viability was evaluated by CellTiter-Glo® Luminescent Cell Viability Assay.

In experiment [5] the test system is murine cortical neurons (14 DIV). Nature of the experiment: NMDA-mediated neuroprotective assay (CCK8 viability). It is filed as cell-based, mouse. The settings on record: 1 μM, 3 h pre-treatment, NMDA 8 μM 24 h, p<0.05. The essentials: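 Primary murine cortical neurons pre-treated with 1 μM compound for 3 or 24 h, then exposed to 8 μM NMDA for 24 h. Viability read by CCK-8 and expressed relative to NMDA-only control; vehicle 0.02% DMSO.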

The mark [6] stands for this setting: summary for all three control lines.
Where [7] appears, read: control line CTR4, 1 μM, p<0.05.

As for `O=C(c1ccc(CN2CCOCC2)cc1)N1CCN(C2CC2)CC1` [Bavisant], the fold induction at 1 µM with rat primary OPC cultures was more than 1.6.
For the compound `NCCCC[C@H](NC(=O)[C@@H](Cc1cc(Br)c(O)c(Br)c1)NC(=O)N1CCC(N2Cc3ccccc3NC2=O)CC1)C(=O)N1CCN(c2ccncc2)CC1` [Olcegepant], the fold induction at 1 µM in the experiment with rat primary OPC cultures was more than 1.6. Also, the “morphological integrity (neurite length) of cortical and striatal neurons” value in experiment [1] is on record as “selected for confirmation”. Moreover, the “protection from tBuOOH insult” value in experiment [2] (setting [6]) was “potential neuroprotective effect from tBuOOH-mediated insult”.
With `CC(=O)N1CCN([C@H]2CCN(C(=O)N(C)[C@H](C)c3cc(C(F)(F)F)cc(C(F)(F)F)c3)[C@@H](c3ccc(F)cc3C)C2)CC1` [Casopitant], in the experiment on rat primary OPC cultures, the fold induction at 1 µM is more than 1.6. Further, the “morphological integrity (neurite length) of cortical and striatal neurons” value in experiment [1] is listed as “selected for confirmation”. Moreover, the “protection from tBuOOH insult” value in experiment [2] (setting [7]) is “protected from tBuOOH insult”; in experiment [2] (control line CTR7, p=0.07), “trend to significance”; in experiment [2] (setting [6]), “potential neuroprotective effect from tBuOOH-mediated insult”. Moreover, in experiment [3] (Early treatment DIV7 to DIV14), the myelin area result was “identified”. For the same compound, in experiment [3] (Early treatment DIV7 to DIV14), the “quantification of myelinated axons” value was “identified”. For the same compound, the “cumulative Z-scores of ATP production/viability” value in experiment [4] is on record as “potential hits”.
Turning to `CC(=O)[C@H]1CC[C@H]2[C@@H]3CCC4=CC(=O)CC[C@]4(C)[C@H]3CC[C@]12C` [Progesterone], the “neuroprotection of viability/metabolic activity against NMDA” value in experiment [5] was “hit compounds”. Besides, the myelin area result in experiment [3] (Early treatment DIV7 to DIV14) and in experiment [3] (Late treatment DIV14-DIV21) was “identified” each time.
As to `O=C(NOC[C@H](O)CO)c1ccc(F)c(F)c1Nc1ccc(I)cc1F` [PD-0325901], the fold induction at 1 µM in the experiment with rat primary OPC cultures was more than 1.6. Besides, the “cumulative Z-scores of ATP production/viability” value in experiment [4] is “potential hits”.
As for `CC1(C)CCC(C)(C)c2cc(NC(=O)c3ccc(C(=O)O)cc3)ccc21` [Tamibarotene], the fold induction at 1 µM in the experiment on rat primary OPC cultures was more than 1.6. In experiment [5], the “neuroprotection of viability/metabolic activity against NMDA” value is given as “hit compounds”. Further, the myelin area entry in experiment [3] (Early treatment DIV7 to DIV14) and in experiment [3] (Late treatment DIV14-DIV21) was “identified” each time.
`C[C@H](Nc1cc(-c2cnn(C)c2)cc(Nc2cnccn2)n1)c1ccc(F)cc1` [NS-018]: the “protection from tBuOOH insult” value in experiment [2] (setting [7]) is “protected from tBuOOH insult”; in experiment [2] (control line CTR8, p<0.05) it was “potential neuroprotective compound from tBuOOH-mediated insult”; in experiment [2] (setting [6]) it was “potential neuroprotective effect from tBuOOH-mediated insult”. The myelin area entry in experiment [3] (Early treatment DIV7 to DIV14) is “identified”. Besides, the “quantification of myelinated axons” value in experiment [3] (Early treatment DIV7 to DIV14) is reported as “identified”.
Take `CCOC(=O)[C@@H](N)CCC(=O)N[C@@H](CSCc1ccccc1)C(=O)N[C@@H](C(=O)OCC)c1ccccc1.Cl` [Ezatiostat hydrochloride, Ezatiostat Hydrochloride]: the “neuroprotection of viability/metabolic activity against NMDA” value in experiment [5] is “hit compounds”. Moreover, the “protection from tBuOOH insult” value in experiment [2] (setting [6]) is “potential neuroprotective effect from tBuOOH-mediated insult”. Also, in experiment [4], the “cumulative Z-scores of ATP production/viability” value is “potential hits”.
